According to PubChem BioAssay AID1963960 (Molecular Pharmacology Branch, DTP, NCI, 2024):

System: MDA-MB-468 spheroids with HUVEC/MSC, viability
Assay: Anticancer human tumor MDA-MB-468 cell line growth inhibition [PI3K];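 also: spheroids exposed to agents for seven days before readout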;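 as to viability, T/C: 100% = DMSO vehicle control viability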
Conditions: for IC50: curve of first compound; for viability, T/C: stronger effect = lower value
How it was run: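 Three cell types, namely tumor cells, endothelial cells and mesenchymal stem cells, formed each spheroid. Combinations with four PI3K inhibitors were screened at clinically achievable concentrations decreasing by half-log, and spheroid viability was recorded.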

[1] = second compound 0.00316 µM, first compound 0.00949 µM
[2] = second compound 0.00316 µM, first compound 0.03 µM
[3] = second compound 0.00316 µM, first compound 0.0949 µM
[4] = second compound 0.00316 µM, first compound 0.3 µM
[5] = second compound 0.00316 µM, first compound 0.949 µM
[6] = second compound 0.00316 µM, first compound 3 µM
[7] = second compound 0.01 µM, first compound 0.00949 µM
[8] = second compound 0.01 µM, first compound 0.03 µM
[9] = second compound 0.01 µM, first compound 0.0949 µM
[10] = second compound 0.01 µM, first compound 0.3 µM
[11] = second compound 0.01 µM, first compound 0.949 µM
[12] = second compound 0.01 µM, first compound 3 µM
[13] = second compound 0.0316 µM, first compound 0.00949 µM
[14] = second compound 0.0316 µM, first compound 0.03 µM
[15] = second compound 0.0316 µM, first compound 0.0949 µM
[16] = second compound 0.0316 µM, first compound 0.3 µM
[17] = second compound 0.0316 µM, first compound 0.949 µM
[18] = second compound 0.0316 µM, first compound 3 µM
[19] = second compound 0.1 µM, first compound 0.00949 µM
[20] = second compound 0.1 µM, first compound 0.03 µM
[21] = second compound 0.1 µM, first compound 0.0949 µM
[22] = second compound 0.1 µM, first compound 0.3 µM
[23] = second compound 0.1 µM, first compound 0.949 µM
[24] = second compound 0.1 µM, first compound 3 µM
[25] = second compound 0.316 µM, first compound 0.00949 µM
[26] = second compound 0.316 µM, first compound 0.03 µM
[27] = second compound 0.316 µM, first compound 0.0949 µM
[28] = second compound 0.316 µM, first compound 0.3 µM
[29] = second compound 0.316 µM, first compound 0.949 µM
[30] = second compound 0.316 µM, first compound 3 µM
[31] = second compound 1 µM, first compound 0.00949 µM
[32] = second compound 1 µM, first compound 0.03 µM
[33] = second compound 1 µM, first compound 0.0949 µM
[34] = second compound 1 µM, first compound 0.3 µM
[35] = second compound 1 µM, first compound 0.949 µM
[36] = second compound 1 µM, first compound 3 µM

For `Cn1cnc2c(F)c(Nc3ccc(Br)cc3Cl)c(C(=O)NOCCO)cc21` + COc1c(OCCCN2CCOCC2)ccc2c3n(c(=NC(=O)c4cnc(N)nc4)nc12)CCN3, the IC50 (second compound 0.00316 µM) was > 3 µM, the IC50 (second compound 0.01 µM) was > 3 µM and the IC50 (second compound 0.0316 µM) was 1.08 µM. For the same compound, the IC50 (second compound 0.1 µM) was 0.114 µM, the IC50 (second compound 0.316 µM) was < 0.00949 µM and the IC50 (second compound 1 µM) was < 0.00949 µM. The viability, T/C [1] was 80.8%, the viability, T/C [2] was 88.8% and the viability, T/C [3] was 84.4%. For the same compound, the viability, T/C [4] was 78.3%, the viability, T/C [5] was 62.5% and the viability, T/C [6] was 55.8%. The viability, T/C [7] was 74.8%, the viability, T/C [8] was 76.6% and the viability, T/C [9] was 81.1%. It also gave a viability, T/C [10] of 64.9%, a viability, T/C [11] of 60.6% and a viability, T/C [12] of 49.3%. For the same compound, the viability, T/C [13] was 68%, the viability, T/C [14] was 69.7% and the viability, T/C [15] was 64.2%. It also gave a viability, T/C [16] of 57.3%, a viability, T/C [17] of 53.8% and a viability, T/C [18] of 37.3%. It also gave a viability, T/C [19] of 55.2%, a viability, T/C [20] of 47.9% and a viability, T/C [21] of 51.2%. For the same compound, the viability, T/C [22] was 46.4%, the viability, T/C [23] was 32.1% and the viability, T/C [24] was 15.6%. The viability, T/C [25] was 26.5%, the viability, T/C [26] was 23.4% and the viability, T/C [27] was 18.5%. For the same compound, the viability, T/C [28] was 16.4%, the viability, T/C [29] was 11.8% and the viability, T/C [30] was 4.57%. For the same compound, the viability, T/C [31] was 2.75%, the viability, T/C [32] was 2.53% and the viability, T/C [33] was 1.74%. The viability, T/C [34] was 1.38%, the viability, T/C [35] was 1.4% and the viability, T/C [36] was 0.51%.
`Cn1cnc2c(F)c(Nc3ccc(Br)cc3Cl)c(C(=O)NOCCO)cc21` + CC(Nc1ccc2c(c1)OCCn1cc(N3C(=O)OCC3C(F)F)nc1-2)C(N)=O was tested, and the IC50 (second compound 0.00316 µM) was > 3 µM, the IC50 (second compound 0.01 µM) was > 3 µM and the IC50 (second compound 0.0316 µM) was > 3 µM. The IC50 (second compound 0.1 µM) was > 3 µM, the IC50 (second compound 0.316 µM) was > 3 µM and the IC50 (second compound 1 µM) was 1.52 µM. It also gave a viability, T/C [1] of 83.2%, a viability, T/C [2] of 78.1% and a viability, T/C [3] of 81.8%. For the same compound, the viability, T/C [4] was 92.6%, the viability, T/C [5] was 87.3% and the viability, T/C [6] was 56.7%. For the same compound, the viability, T/C [7] was 80%, the viability, T/C [8] was 88.9% and the viability, T/C [9] was 79.9%. The viability, T/C [10] was 90.4%, the viability, T/C [11] was 73.9% and the viability, T/C [12] was 61.9%. It also gave a viability, T/C [13] of 103%, a viability, T/C [14] of 86.4% and a viability, T/C [15] of 86.3%. The viability, T/C [16] was 83%, the viability, T/C [17] was 63.9% and the viability, T/C [18] was 58.6%. For the same compound, the viability, T/C [19] was 91.3%, the viability, T/C [20] was 73.5% and the viability, T/C [21] was 70.5%. The viability, T/C [22] was 77.5%, the viability, T/C [23] was 66.7% and the viability, T/C [24] was 48.9%. It also gave a viability, T/C [25] of 81.3%, a viability, T/C [26] of 78.6% and a viability, T/C [27] of 64.4%. It also gave a viability, T/C [28] of 67%, a viability, T/C [29] of 64.1% and a viability, T/C [30] of 48.9%. The viability, T/C [31] was 79.4%, the viability, T/C [32] was 63.7% and the viability, T/C [33] was 77%. The viability, T/C [34] was 69.7%, the viability, T/C [35] was 55.1% and the viability, T/C [36] was 39%.
`CCCS(=O)(=O)Nc1ccc(F)c(C(=O)c2c[nH]c3ncc(-c4ccc(Cl)cc4)cc23)c1F` + CC(Nc1ccc2c(c1)OCCn1cc(N3C(=O)OCC3C(F)F)nc1-2)C(N)=O gave an IC50 (second compound 0.00316 µM) of 5.33 µM, an IC50 (second compound 0.01 µM) of 5.16 µM and an IC50 (second compound 0.0316 µM) of 5.07 µM. It also gave an IC50 (second compound 0.1 µM) of 4.53 µM, an IC50 (second compound 0.316 µM) of 3.62 µM and an IC50 (second compound 1 µM) of 3.72 µM. It also gave a viability, T/C (second compound 0.00316 µM, first compound 0.0316 µM) of 89.1%, a viability, T/C (second compound 0.00316 µM, first compound 0.1 µM) of 114% and a viability, T/C (second compound 0.00316 µM, first compound 0.316 µM) of 100%. It also gave a viability, T/C (second compound 0.00316 µM, first compound 1 µM) of 94.4%, a viability, T/C (second compound 0.00316 µM, first compound 3.16 µM) of 78.9% and a viability, T/C (second compound 0.00316 µM, first compound 10 µM) of 15.6%. For the same compound, the viability, T/C (second compound 0.01 µM, first compound 0.0316 µM) was 101%, the viability, T/C (second compound 0.01 µM, first compound 0.1 µM) was 90% and the viability, T/C (second compound 0.01 µM, first compound 0.316 µM) was 90.6%. The viability, T/C (second compound 0.01 µM, first compound 1 µM) was 104%, the viability, T/C (second compound 0.01 µM, first compound 3.16 µM) was 74.8% and the viability, T/C (second compound 0.01 µM, first compound 10 µM) was 16.4%. It also gave a viability, T/C (second compound 0.0316 µM, first compound 0.0316 µM) of 106%, a viability, T/C (second compound 0.0316 µM, first compound 0.1 µM) of 98.7% and a viability, T/C (second compound 0.0316 µM, first compound 0.316 µM) of 86.8%. For the same compound, the viability, T/C (second compound 0.0316 µM, first compound 1 µM) was 103%, the viability, T/C (second compound 0.0316 µM, first compound 3.16 µM) was 74.8% and the viability, T/C (second compound 0.0316 µM, first compound 10 µM) was 14.2%. For the same compound, the viability, T/C (second compound 0.1 µM, first compound 0.0316 µM) was 95.4%, the viability, T/C (second compound 0.1 µM, first compound 0.1 µM) was 90.6% and the viability, T/C (second compound 0.1 µM, first compound 0.316 µM) was 85.6%. It also gave a viability, T/C (second compound 0.1 µM, first compound 1 µM) of 94.5%, a viability, T/C (second compound 0.1 µM, first compound 3.16 µM) of 66.2% and a viability, T/C (second compound 0.1 µM, first compound 10 µM) of 14.5%. For the same compound, the viability, T/C (second compound 0.316 µM, first compound 0.0316 µM) was 95.6%, the viability, T/C (second compound 0.316 µM, first compound 0.1 µM) was 89.1% and the viability, T/C (second compound 0.316 µM, first compound 0.316 µM) was 79.2%. For the same compound, the viability, T/C (second compound 0.316 µM, first compound 1 µM) was 94.1%, the viability, T/C (second compound 0.316 µM, first compound 3.16 µM) was 55% and the viability, T/C (second compound 0.316 µM, first compound 10 µM) was 12.1%. For the same compound, the viability, T/C (second compound 1 µM, first compound 0.0316 µM) was 85.3%, the viability, T/C (second compound 1 µM, first compound 0.1 µM) was 88.3% and the viability, T/C (second compound 1 µM, first compound 0.316 µM) was 78.7%. It also gave a viability, T/C (second compound 1 µM, first compound 1 µM) of 67.2%, a viability, T/C (second compound 1 µM, first compound 3.16 µM) of 61.4% and a viability, T/C (second compound 1 µM, first compound 10 µM) of 11%.
